For assay [1], the target named is T1, GPR39 (Homo sapiens, UniProt O43194).
T1 sequence (O43194 1-453): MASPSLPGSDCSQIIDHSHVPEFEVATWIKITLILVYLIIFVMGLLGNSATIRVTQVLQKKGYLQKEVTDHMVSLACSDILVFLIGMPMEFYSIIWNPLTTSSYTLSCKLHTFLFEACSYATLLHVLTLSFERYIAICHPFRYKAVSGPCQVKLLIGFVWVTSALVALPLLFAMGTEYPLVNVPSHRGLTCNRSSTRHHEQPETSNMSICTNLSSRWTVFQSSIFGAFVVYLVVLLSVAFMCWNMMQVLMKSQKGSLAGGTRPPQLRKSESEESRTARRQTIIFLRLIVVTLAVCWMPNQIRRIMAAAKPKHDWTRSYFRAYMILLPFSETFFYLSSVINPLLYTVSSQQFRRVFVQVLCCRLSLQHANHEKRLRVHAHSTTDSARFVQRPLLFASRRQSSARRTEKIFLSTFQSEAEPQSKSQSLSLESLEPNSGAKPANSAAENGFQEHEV
Kind of assay: Back-scattering interferometry (BSI) binding assay, HEK293s-hGPR39 membranes. Also on record: Full length human (AF034633), rat (DM091294) and mouse (BC085285) GPR39; expressed in transfected cells; host or cells: HEK293s (ATCC CRL-1573), pIRESneo3 vector, selected clones. The method, then:
Membranes (1.3 mg protein/ml) from HEK293s-hGPR39 and untransfected HEK293s cells were diluted 11-fold in 50 mM Tris, pH 7.5, 5 μM ZnCl2, 0.3% DMSO. The compounds were diluted from 10 mM in DMSO to the final maximum stock concentration of 30 μM with 50 mM Tris, pH 7.5, 5 μM ZnCl2, 24.6 mM sucrose. A 3-fold serial dilution was performed with the compounds and refractive index-matched assay buffer, 50 mM Tris, pH 7.5, 5 μM ZnCl2, 24.6 mM sucrose, 0.3% DMSO. The compound serial dilutions were mixed 1:1 with either the GPR39 or wild type membrane fractions in a 96-well polypropylene microplate (Eppendorf, Hauppauge, NY). After a 2 hour incubation at room temperature, the plate was analyzed on a pre-commercial prototype BSI instrument (Molecular Sensing, Inc., Nashville, TN). Binding signal was expressed as the phase shift in the interference fringe patterns on a CMOS camera as measured in milliradians. The data from the wild type membrane fractions was subtracted from the GPR39-expressing fractions point by point to obtain the specific binding interaction of the compounds with GPR39 and fit to one-site binding or two-site binding models using built-in models in Graphpad Prism to determine K D values for each compound.

Assay [2] addresses T2, mGPR39 (Mus musculus, UniProt Q5U431).
T2 construct: Full length human (AF034633), rat (DM091294) and mouse (BC085285) GPR39; expressed in transfected cells; host or cells: HEK293s (ATCC CRL-1573), pIRESneo3 vector, selected clones
T2 sequence (Q5U431 1-456): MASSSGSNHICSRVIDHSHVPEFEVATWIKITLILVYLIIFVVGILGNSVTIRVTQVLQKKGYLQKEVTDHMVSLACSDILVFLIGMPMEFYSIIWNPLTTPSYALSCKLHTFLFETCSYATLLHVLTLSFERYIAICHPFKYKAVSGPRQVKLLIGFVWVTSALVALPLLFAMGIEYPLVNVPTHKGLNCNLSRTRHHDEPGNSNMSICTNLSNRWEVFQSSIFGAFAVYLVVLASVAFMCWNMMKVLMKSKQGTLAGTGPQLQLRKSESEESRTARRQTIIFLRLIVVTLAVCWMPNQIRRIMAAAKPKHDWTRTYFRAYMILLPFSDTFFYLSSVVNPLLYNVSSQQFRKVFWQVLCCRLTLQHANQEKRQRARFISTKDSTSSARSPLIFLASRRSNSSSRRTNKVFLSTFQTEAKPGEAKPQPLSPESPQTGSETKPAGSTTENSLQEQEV
The assay is described as follows: DMR label-free assay, HEK293s cells transfected with mouse GPR39. It is filed as cell-based. The following applies: for Efficacy at 33 μM: AZ1395 100% reference. An excerpt: Full length human (AF034633), rat (DM091294) and mouse (BC085285) GPR39 (GeneArt–Life Technologies, Carlsbad, CA) were subcloned into the pIRESneo3 vector (Clontech, Mountain View, CA). The resulting expression vectors hGPR39-, rGPR39- and mGPR39-pIRESneo3 were transfected into HEK293s cells (ATCC CRL-1573) using Lipofectamine 2000 (Life Technologies). Individual clones were isolated using flow cytometry with a FACSVantage SE DIVA (Becton Dickinson, Franklin Lakes, NJ) and clones were chosen based on responses to Zn^2+ measured in a cAMP assay (see below). […] HEK293s-derived cell lines were cultured at 37°C, 10% CO2 and 95% humidity in DMEM supplemented with 10% FBS and 600 μg/ml Geneticin (Life Technologies). The mouse pancreas epithelial cell line NIT-1 (ATCC CRL-2055) with endogenous expression of GPR39 was cultured at 37°C, 5% CO2, and 95% humidity in Ham´s F12 (Life Technologies) supplemented with 10% FBS.
DMR assays were performed using an Epic instrument (Corning Inc., Corning, NY). 12,000 cells per well were cultured for 24 h in 384-well fibronectin-coated Epic biosensor plates (Corning). On the day of experiment, culture medium was removed and replaced with 30 μl buffer A (HBSS, HEPES 20 mM pH7.4, 1% DMSO, 0.01% BSA) using an EL406 (Bio-Tek). Plates were incubated at 26 °C for 1 h inside the Epic to allow for temperature equilibration. A baseline was read for 2 min, and then 15 μl compounds in buffer A were added using a CyBi-Well vario (CyBio) and DMR was detected during 45 min.
Concentration response data were fitted with a four parameter logistic fit using Eq 1, y=A+((B−A)/1+((C/x)^D))) (1) where A is no activation, B is full activation, C is the EC50 and D is the Hill slope.

Setting [3] is: presence of 5 μM Zn^2+, one site binding model, read-out: K D ± SE.
Setting [4] is: absence (w/o) of Zn^2+, read-out: EC50.
Setting [5] is: presence of 5 μM Zn^2+, read-out: pEC50 ± SD (converted).
[6] abbreviates: Zn^2+ binding, two site binding model.

Each structure is given as a SMILES string. Like-named read-outs stand apart in the source and are kept apart here. Where only a bound is given, the exact number is not on record here.

On to `N#Cc1ccc(OCCn2ccnc2)c(OCCn2ccnc2)c1` [AZ1395, 3,4-bis-(2-imidazol-1-ylethoxy)-benzonitrile], for which the Kd in assay [1] (setting [3]) was found to be 233 ± 70 nM. For the same compound, the EC50 is 10000 nM in assay [2] (setting [4]); 10500 nM in assay [2] (absence (w/o) of Zn^2+, read-out: pEC50 ± SD (converted)); 166 nM in assay [2] (setting [5]).

In the case of `Cc1nc2c(C(=O)O)cnn2c(O)c1Cc1ccc(Cl)cc1` [AZ4237, 6-[(4-chlorophenyl)methyl]-7-hydroxy-5-methyl-pyrazolo[1,5-a]pyrimidine-3-carboxylic acid], the Kd in assay [1] (setting [3]) was 48 ± 18 nM. In assay [2] (absence (w/o) of Zn^2+), the “Efficacy at 33 μM” value was 12%. Further, the EC50 in assay [2] (setting [4]) is > 33000 nM; in assay [2] (presence of 5 μM Zn^2+, read-out: EC50), 450 nM; in assay [2] (setting [5]), 457 nM.

As for `Cc1nc(-c2nc3c(c(=O)[nH]2)CN(C(=O)c2cccc(Cl)c2F)CC3)cs1` [AZ7914, 6-(3-chloro-2-fluoro-benzoyl)-2-(2-methylthiazol-4-yl)-3,5,7,8-tetrahydropyrido-[4,3-d]pyrimidin-4-one], the Kd in assay [1] (setting [3]) came out at 192 ± 85 nM. For the same compound, the “Efficacy at 33 μM” value in assay [2] (absence (w/o) of Zn^2+) came out at 42%. The figures for the EC50 in assay [2] (setting [4]) and in assay [2] (setting [5]) were > 33000 nM and 316 nM, respectively.

As for `[Zn+2]` [Zn^2+], in assay [1] (setting [6]), the “pK D1 (high affinity site)” value is recorded as 6.27 and the “pK D2 (low affinity site)” value came to 3.68. In assay [1] (Zn^2+ binding, two site binding model, read-out: K D1 (high affinity site) ± SE), the Kd was 530 nM. Also, the Kd in assay [1] (Zn^2+ binding, two site binding model, read-out: K D2 (low affinity site) ± SE) turned out to be 211000 nM.

Source of the values: paper PMC4697807, “Novel Zn^2+ Modulated GPR39 Receptor Agonists Do Not Drive Acute Insulin Secretion in Rodents” (PLoS ONE, 2015).
